# Reference: the supplement of paper PMC12463676, “Small-molecule dissolution of stress granules by redox modulation benefits ALS models” (Nature Chemical Biology, 2025)
# Legend:
# potassium arsenate = compound: O=[As]([O-])(O)O.[K+] [potassium arsenate]; test: thermal stability z-score vs DMSO; higher = more thermally stabilized by treatment; conditions: HeLa; arsenate concentration 1 mM
# Method: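 Cellular thermal proteome profiling in HeLa cells treated with 1 mM arsenate for 1 h (DMSO pretreatment), heated to ten temperatures (37-66.3 °C). Soluble protein was quantified by TMT mass spectrometry relative to DMSO controls; the thermal stability score was transformed to a z-score; mean of n = 3 experiments.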
# lipoamide = compound: NC(=O)CCCCC1CCSS1 [lipoamide]; test: as above; conditions: HeLa, lipoamide concentration 100 µM
# Method: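 Cellular thermal proteome profiling in HeLa cells. Cells were treated with 100 µM lipoamide for 1 h, with or without 1 mM arsenate for a further 1 h, then heated to ten temperatures (37-66.3 °C), and soluble protein was quantified by TMT mass spectrometry relative to 0.1% DMSO controls. The thermal stability score (sum of log2 fold changes minus the abundance score) was transformed to a z-score; mean of n = 3 experiments.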
# [1] = arsenate co-treatment: 1 mM arsenate 1 h
# 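Also: each temperature applied for 3 min, abundance score taken as mean log2 fold change at the two lowest temperatures, z-score obtained by mean subtraction and division by SD.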
# Chain of UniProt O15400 (O15400 whole entry): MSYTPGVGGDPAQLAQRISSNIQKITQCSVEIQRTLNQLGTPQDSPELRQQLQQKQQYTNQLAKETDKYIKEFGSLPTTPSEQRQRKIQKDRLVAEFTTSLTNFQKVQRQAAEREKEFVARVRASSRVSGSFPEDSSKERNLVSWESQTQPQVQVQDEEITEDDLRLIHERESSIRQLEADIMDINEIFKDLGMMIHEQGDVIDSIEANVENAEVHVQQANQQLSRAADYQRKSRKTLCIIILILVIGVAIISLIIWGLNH
# Chain of UniProt Q658P3 (Q658P3 whole entry): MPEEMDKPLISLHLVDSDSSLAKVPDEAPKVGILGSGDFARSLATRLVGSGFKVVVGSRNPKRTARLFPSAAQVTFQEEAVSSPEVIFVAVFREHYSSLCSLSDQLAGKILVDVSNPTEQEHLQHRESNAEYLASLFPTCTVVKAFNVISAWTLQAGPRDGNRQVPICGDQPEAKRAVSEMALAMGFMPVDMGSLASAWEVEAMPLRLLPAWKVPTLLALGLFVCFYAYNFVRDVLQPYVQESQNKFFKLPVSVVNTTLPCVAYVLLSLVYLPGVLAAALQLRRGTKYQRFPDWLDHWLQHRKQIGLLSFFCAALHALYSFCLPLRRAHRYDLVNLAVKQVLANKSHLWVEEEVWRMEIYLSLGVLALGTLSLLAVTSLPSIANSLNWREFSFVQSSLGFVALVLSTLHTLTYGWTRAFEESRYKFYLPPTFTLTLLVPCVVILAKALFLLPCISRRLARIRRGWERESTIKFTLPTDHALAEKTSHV
# Chain of UniProt O95210 (O95210 whole entry): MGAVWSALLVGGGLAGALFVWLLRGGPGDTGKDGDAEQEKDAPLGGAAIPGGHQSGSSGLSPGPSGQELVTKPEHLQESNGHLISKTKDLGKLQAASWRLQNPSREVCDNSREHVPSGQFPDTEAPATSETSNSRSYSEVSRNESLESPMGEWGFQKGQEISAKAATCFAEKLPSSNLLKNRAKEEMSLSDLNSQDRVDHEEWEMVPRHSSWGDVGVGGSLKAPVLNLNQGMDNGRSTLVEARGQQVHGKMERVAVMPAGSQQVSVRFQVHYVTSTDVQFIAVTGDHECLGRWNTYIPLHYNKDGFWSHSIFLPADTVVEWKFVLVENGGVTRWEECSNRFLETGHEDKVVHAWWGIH
# Chain of UniProt Q9Y2H1 (Q9Y2H1 whole entry, looked up): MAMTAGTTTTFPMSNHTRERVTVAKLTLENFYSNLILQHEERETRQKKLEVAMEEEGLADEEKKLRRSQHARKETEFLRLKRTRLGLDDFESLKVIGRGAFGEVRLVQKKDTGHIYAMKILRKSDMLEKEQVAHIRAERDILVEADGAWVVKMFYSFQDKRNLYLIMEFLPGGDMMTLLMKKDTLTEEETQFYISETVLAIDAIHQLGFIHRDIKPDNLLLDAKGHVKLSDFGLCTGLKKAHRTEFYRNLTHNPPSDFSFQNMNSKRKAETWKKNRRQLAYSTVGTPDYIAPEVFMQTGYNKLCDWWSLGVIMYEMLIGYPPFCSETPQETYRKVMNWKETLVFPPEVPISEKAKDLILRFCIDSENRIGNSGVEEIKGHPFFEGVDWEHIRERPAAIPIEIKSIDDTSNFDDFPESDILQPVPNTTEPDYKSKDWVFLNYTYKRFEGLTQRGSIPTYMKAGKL
# Chain of UniProt Q9Y2Z0 (Q9Y2Z0 whole entry): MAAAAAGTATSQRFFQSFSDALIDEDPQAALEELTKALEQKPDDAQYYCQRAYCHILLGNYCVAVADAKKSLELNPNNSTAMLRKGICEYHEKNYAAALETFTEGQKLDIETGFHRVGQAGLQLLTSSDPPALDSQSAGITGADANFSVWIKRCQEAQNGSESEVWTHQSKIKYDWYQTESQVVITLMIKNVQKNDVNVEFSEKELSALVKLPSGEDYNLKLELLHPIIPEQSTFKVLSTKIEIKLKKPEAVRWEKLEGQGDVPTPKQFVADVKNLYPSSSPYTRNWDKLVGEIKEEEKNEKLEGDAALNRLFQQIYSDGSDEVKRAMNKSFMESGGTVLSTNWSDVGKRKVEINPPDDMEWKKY
# Chain of UniProt Q9UEE5 (Q9UEE5 whole entry): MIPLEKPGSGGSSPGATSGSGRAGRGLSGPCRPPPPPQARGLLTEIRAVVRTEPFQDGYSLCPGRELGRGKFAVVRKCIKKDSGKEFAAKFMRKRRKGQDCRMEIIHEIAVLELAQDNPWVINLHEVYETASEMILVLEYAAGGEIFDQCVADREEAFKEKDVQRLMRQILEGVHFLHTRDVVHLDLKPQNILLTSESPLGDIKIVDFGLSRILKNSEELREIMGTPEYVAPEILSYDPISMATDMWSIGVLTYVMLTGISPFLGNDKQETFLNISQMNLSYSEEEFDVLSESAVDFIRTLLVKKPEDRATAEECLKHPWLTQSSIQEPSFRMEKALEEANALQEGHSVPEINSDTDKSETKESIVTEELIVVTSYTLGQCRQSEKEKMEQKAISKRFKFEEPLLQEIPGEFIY
# Chain of UniProt Q8NBJ7 (Q8NBJ7 whole entry): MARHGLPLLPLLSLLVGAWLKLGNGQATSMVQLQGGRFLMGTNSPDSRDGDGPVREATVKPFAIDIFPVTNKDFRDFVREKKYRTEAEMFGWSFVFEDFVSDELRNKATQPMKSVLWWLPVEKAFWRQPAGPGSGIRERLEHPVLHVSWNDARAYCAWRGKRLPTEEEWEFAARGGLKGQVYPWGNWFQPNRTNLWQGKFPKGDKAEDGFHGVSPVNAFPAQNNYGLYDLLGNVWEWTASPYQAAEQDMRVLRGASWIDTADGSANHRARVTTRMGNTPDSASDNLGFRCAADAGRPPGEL
# Chain of UniProt Q13033 (Q13033 whole entry): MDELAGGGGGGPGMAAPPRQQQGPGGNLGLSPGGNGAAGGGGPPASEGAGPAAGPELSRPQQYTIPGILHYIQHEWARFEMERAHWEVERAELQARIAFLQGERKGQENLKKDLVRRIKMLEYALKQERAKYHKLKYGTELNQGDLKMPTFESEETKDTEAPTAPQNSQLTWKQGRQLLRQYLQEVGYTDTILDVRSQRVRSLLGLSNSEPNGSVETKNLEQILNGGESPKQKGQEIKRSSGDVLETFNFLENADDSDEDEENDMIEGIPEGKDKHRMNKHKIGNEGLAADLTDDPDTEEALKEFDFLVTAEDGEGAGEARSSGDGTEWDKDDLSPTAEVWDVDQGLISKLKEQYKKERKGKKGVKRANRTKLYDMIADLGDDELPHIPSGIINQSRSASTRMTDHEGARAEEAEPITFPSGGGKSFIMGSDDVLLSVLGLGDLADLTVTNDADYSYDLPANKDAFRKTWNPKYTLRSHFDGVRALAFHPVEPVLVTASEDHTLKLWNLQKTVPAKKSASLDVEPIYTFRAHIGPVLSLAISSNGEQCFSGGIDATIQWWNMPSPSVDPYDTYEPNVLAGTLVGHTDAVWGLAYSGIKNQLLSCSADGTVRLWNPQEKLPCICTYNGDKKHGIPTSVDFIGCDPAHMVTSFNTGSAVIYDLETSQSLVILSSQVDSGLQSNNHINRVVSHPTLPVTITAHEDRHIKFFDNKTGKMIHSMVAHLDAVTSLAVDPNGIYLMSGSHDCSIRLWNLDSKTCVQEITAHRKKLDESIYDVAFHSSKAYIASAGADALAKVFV
# Chain of UniProt Q13190 (Q13190 whole entry): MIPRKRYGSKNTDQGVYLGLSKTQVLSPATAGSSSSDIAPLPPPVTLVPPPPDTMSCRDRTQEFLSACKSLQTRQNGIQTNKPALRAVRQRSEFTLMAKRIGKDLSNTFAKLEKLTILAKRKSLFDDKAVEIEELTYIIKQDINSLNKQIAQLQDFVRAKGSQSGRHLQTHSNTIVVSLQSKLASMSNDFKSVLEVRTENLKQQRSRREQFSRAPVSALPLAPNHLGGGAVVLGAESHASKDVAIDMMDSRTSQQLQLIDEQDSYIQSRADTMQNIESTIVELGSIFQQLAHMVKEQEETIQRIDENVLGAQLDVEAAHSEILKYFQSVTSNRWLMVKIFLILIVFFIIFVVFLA
# Chain of UniProt O14662 (O14662 whole entry): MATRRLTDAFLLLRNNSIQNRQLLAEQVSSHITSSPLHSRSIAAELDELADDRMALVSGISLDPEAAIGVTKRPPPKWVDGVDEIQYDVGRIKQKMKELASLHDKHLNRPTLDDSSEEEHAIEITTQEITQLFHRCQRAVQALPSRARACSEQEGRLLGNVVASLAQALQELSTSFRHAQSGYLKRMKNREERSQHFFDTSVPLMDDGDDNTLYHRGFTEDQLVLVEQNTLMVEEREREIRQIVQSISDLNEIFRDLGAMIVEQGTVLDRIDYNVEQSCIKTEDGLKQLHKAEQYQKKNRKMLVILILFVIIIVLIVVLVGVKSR
# Chain of UniProt Q6ZWJ1 (Q6ZWJ1 whole entry): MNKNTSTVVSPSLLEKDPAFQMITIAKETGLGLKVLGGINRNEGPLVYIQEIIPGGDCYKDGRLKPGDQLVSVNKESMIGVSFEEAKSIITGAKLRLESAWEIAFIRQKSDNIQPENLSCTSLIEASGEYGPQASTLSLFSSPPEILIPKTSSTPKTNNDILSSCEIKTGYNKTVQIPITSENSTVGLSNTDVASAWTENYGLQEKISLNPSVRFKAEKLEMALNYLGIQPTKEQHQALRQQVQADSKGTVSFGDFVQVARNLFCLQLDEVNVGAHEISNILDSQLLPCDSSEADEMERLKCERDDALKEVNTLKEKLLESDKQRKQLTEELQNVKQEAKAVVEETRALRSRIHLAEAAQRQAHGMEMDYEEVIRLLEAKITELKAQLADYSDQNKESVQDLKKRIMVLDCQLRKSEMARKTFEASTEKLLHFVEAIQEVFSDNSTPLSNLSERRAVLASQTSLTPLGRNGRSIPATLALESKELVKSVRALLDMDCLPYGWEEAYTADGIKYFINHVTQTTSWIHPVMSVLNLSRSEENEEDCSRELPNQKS
# Chain of UniProt Q9UNK0 (Q9UNK0 whole entry): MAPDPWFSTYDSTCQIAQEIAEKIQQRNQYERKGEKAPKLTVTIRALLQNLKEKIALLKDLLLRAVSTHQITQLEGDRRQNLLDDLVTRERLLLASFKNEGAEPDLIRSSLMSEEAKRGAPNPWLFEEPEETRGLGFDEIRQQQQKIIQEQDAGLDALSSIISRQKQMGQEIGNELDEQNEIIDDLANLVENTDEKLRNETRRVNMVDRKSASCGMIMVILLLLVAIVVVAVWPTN
Target,thermal stability z-score (potassium arsenate),thermal stability z-score (lipoamide; [1]),thermal stability z-score (lipoamide; arsenate co-treatment: none)
STAU2 (UniProt Q9NUL3),-0.323,-0.183,-0.124
STBD1 (UniProt O95210),0.149,-0.616,0.112
STEAP3 (UniProt Q658P3),-0.122,0.104,0.572
STEAP4 (UniProt Q687X5),0.565,0.438,0.75
STIM1 (UniProt Q13586),0.0811,-1.28,-1.03
STIM2 (UniProt Q9P246),-0.103,-0.102,-0.0704
STIP1 (UniProt P31948),-0.157,0.275,0.371
STK3 (UniProt Q13188),0.098,-0.139,-0.0255
STK4 (UniProt Q13043),-0.188,0.0921,-0.0308
STK10 (UniProt O94804),0.146,-0.201,-0.0461
STK11IP (UniProt Q8N1F8),0.324,-0.747,-0.512
STK17A (UniProt Q9UEE5),0.0862,-0.0669,-0.0755
STK24 (UniProt Q9Y6E0),0.0137,0.0491,-0.118
STK25 (UniProt O00506),0.496,0.466,-0.862
STK26 (UniProt Q9P289),1.4,0.681,1.24
STK38 (UniProt Q15208),-0.182,-0.703,-0.424
STK38L (UniProt Q9Y2H1),0.201,0.0467,0.0651
STMN1 (UniProt P16949),0.78,1.14,1.18
STOM (UniProt P27105),0.0471,-0.123,0.354
STOML2 (UniProt Q9UJZ1),-0.147,-0.324,0.0393
STRAP (UniProt Q9Y3F4),-0.875,0.312,0.0419
STRBP (UniProt Q96SI9),0.571,0.867,0.71
STRIP1 (UniProt Q5VSL9),1.36,0.978,1.5
STRN3 (UniProt Q13033),0.326,0.231,0.318
STRN4 (UniProt Q9NRL3),0.937,-0.136,0.198
STRN (UniProt O43815),0.345,0.402,0.602
STT3A (UniProt P46977),-0.218,-2.6,-1.98
STT3B (UniProt Q8TCJ2),0.646,-3.41,-2.66

Target,thermal stability z-score (potassium arsenate),thermal stability z-score (lipoamide; [1]),thermal stability z-score (lipoamide; arsenate co-treatment: none)
STUB1 (UniProt Q9UNE7),0.207,-0.065,-0.23
STX2 (UniProt P32856),-0.135,0.221,-0.18
STX3 (UniProt Q13277),-0.39,0.221,-0.315
STX4 (UniProt Q12846),-0.199,0.741,0.546
STX5 (UniProt Q13190),0.0014,0.00395,-0.95
STX6 (UniProt O43752),-0.486,-0.996,-0.712
STX7 (UniProt O15400),0.507,-0.0553,0.417
STX8 (UniProt Q9UNK0),0.248,-0.198,0.507
STX10 (UniProt O60499),0.516,-0.387,-0.00805
STX12 (UniProt Q86Y82),0.452,0.379,0.716
STX16 (UniProt O14662),0.553,-0.63,0.276
STX18 (UniProt Q9P2W9),0.066,0.00945,0.0404
STXBP1 (UniProt P61764),0.156,-0.206,0.0929
STXBP2 (UniProt Q15833),0.225,-0.105,0.167
STXBP3 (UniProt O00186),0.223,0.948,0.942
STXBP4 (UniProt Q6ZWJ1),-0.111,-0.119,0.0111
STXBP5 (UniProt Q5T5C0),1.77,0.208,0.496
SUB1 (UniProt P53999),0.0838,0.206,0.0783
SUCLA2 (UniProt Q9P2R7),-0.411,0.0341,0.0719
SUCLG1 (UniProt P53597),0.206,0.0617,0.192
SUCLG2 (UniProt Q96I99),0.106,0.0359,0.172
SUGP1 (UniProt Q8IWZ8),0.928,0.164,-0.049
SUGT1 (UniProt Q9Y2Z0),0.388,0.611,0.585
SULT1A4|SULT1A3,1.16,-0.787,0.186
SUMF1 (UniProt Q8NBK3),-0.194,-1,-0.419
SUMF2 (UniProt Q8NBJ7),0.544,-3.47,-2.99
SUMO1 (UniProt P63165),1.09,-0.294,-0.0784
